We go through six cell lines from the supplement of paper PMC10307832.

Holding throughout (experiment): relative viability (nuclei count vs DMSO), 5 days (fraction); higher = more cells survive
Compound in test [1]: COc1cc2ncn(-c3cc(OCc4ccccc4C(F)(F)F)c(C(N)=O)s3)c2cc1OC + CC1(C)CCC(c2ccc(Cl)cc2)=C(CN2CCN(c3ccc(C(=O)NS(=O)(=O)c4ccc(N[C@H](CCN5CCOCC5)CSc5ccccc5)c(S(=O)(=O)C(F)(F)F)c4)cc3)CC2)C1 [Navitoclax] (partner 0.5 µM)
The method in brief:
(§1)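 Relative viability is defined as nuclei in treated wells over nuclei in vehicle wells. Duplicate plates were run and medians reported. Lung cancer cell lines in 1536-well plates were dosed by pin tool one day after seeding, with one drug or with a fixed anchor-drug dose plus five library-drug doses (not always all listed) in √10 steps, and nuclei were counted after 5 days.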

Compound in test [2]: COc1cc2ncn(-c3cc(OCc4ccccc4C(F)(F)F)c(C(N)=O)s3)c2cc1OC + N=C(N)NC(=N)NCCc1ccccc1 [Phenformin] (partner 250 µM)
Summed up: as §1

Compound in test [3]: COc1cc2ncn(-c3cc(OCc4ccccc4C(F)(F)F)c(C(N)=O)s3)c2cc1OC + CC(=O)Nc1cccc(-n2c(=O)n(C3CC3)c(=O)c3c(Nc4ccc(I)cc4F)n(C)c(=O)c(C)c32)c1 [Trametinib] (partner 0.02 µM)
The method in brief:
as §1

Compound in test [4]: COc1cc2ncn(-c3cc(OCc4ccccc4C(F)(F)F)c(C(N)=O)s3)c2cc1OC + Nc1nc2[nH]cc(CCc3ccc(C(=O)N[C@@H](CCC(=O)O)C(=O)O)cc3)c2c(=O)[nH]1 [Pemetrexed] (partner 0.2 µM)
Summed up:
as §1

On to NCI-H2347, for which the relative viability in test [1] (first compound 0.05 µM) worked out at 0.78; in test [1] (first compound 0.1581 µM) it was 1.01; in test [1] (first compound 0.5 µM), 0.566; in test [1] (first compound 1.581 µM) it was 0.38; in test [1] (first compound 5 µM), 0.579; in test [2] (first compound 0.05 µM) it was 0.361. The relative viability turned out to be 0.374 in test [2] (first compound 0.1581 µM); 0.493 in test [2] (first compound 0.5 µM); 0.353 in test [2] (first compound 1.581 µM); 0.277 in test [2] (first compound 5 µM); 0.287 in test [3] (first compound 0.05 µM); 0.28 in test [3] (first compound 0.1581 µM). The relative viability in test [3] (first compound 0.5 µM) was determined as 0.299; in test [3] (first compound 1.581 µM), 0.268; in test [3] (first compound 5 µM), 0.282; in test [4] (first compound 0.05 µM), 0.455; in test [4] (first compound 0.1581 µM) it was 0.434; in test [4] (first compound 0.5 µM), 0.403. Further, the relative viability in test [4] (first compound 1.581 µM) is 0.364; in test [4] (first compound 5 µM), 0.33.

For NCI-H2126, the relative viability is 0.856 in test [1] (first compound 0.05 µM); 0.834 in test [1] (first compound 0.1581 µM); 0.662 in test [1] (first compound 0.5 µM); 0.284 in test [1] (first compound 1.581 µM); 0.225 in test [1] (first compound 5 µM); 0.481 in test [2] (first compound 0.05 µM). Also, the relative viability in test [2] (first compound 0.1581 µM) came out at 0.579; in test [2] (first compound 0.5 µM), 0.367; in test [2] (first compound 1.581 µM), 0.265; in test [2] (first compound 5 µM), 0.261; in test [3] (first compound 0.05 µM), 0.535; in test [3] (first compound 0.1581 µM) it was 0.582. For the same cell line, the relative viability in test [3] (first compound 0.5 µM) came to 0.478; in test [3] (first compound 1.581 µM), 0.27; in test [3] (first compound 5 µM), 0.205; in test [4] (first compound 0.05 µM), 0.75; in test [4] (first compound 0.1581 µM), 0.655; in test [4] (first compound 0.5 µM), 0.498. Besides, the values for the relative viability in test [4] (first compound 1.581 µM) and in test [4] (first compound 5 µM) were 0.288 and 0.251, respectively.

For HCC-827, the relative viability was found to be 0.988 in test [1] (first compound 0.05 µM); 0.99 in test [1] (first compound 0.1581 µM); 0.874 in test [1] (first compound 0.5 µM); 0.287 in test [1] (first compound 1.581 µM); 0.201 in test [1] (first compound 5 µM); 0.468 in test [2] (first compound 0.05 µM). Further, the relative viability in test [2] (first compound 0.1581 µM) worked out at 0.426; in test [2] (first compound 0.5 µM), 0.33; in test [2] (first compound 1.581 µM), 0.22; in test [2] (first compound 5 µM), 0.181; in test [3] (first compound 0.05 µM), 0.479; in test [3] (first compound 0.1581 µM), 0.421. Further, the relative viability stood at 0.473 in test [3] (first compound 0.5 µM); 0.428 in test [3] (first compound 1.581 µM); 0.453 in test [3] (first compound 5 µM); 0.269 in test [4] (first compound 0.05 µM); 0.304 in test [4] (first compound 0.1581 µM); 0.227 in test [4] (first compound 0.5 µM). Besides, the figures for the relative viability in test [4] (first compound 1.581 µM) and in test [4] (first compound 5 µM) were 0.259 and 0.263, respectively.

On to NCI-H3122, for which the relative viability in test [1] (first compound 0.05 µM) was determined as 1.05; in test [1] (first compound 0.1581 µM), 1.01; in test [1] (first compound 0.5 µM) it was 0.212; in test [1] (first compound 1.581 µM) it was 0.189; in test [1] (first compound 5 µM), 0.202; in test [2] (first compound 0.05 µM) it was 0.362. The relative viability was found to be 0.37 in test [2] (first compound 0.1581 µM); 0.16 in test [2] (first compound 0.5 µM); 0.143 in test [2] (first compound 1.581 µM); 0.128 in test [2] (first compound 5 µM); 0.209 in test [3] (first compound 0.05 µM); 0.213 in test [3] (first compound 0.1581 µM). Also, the relative viability in test [3] (first compound 0.5 µM) amounted to 0.143; in test [3] (first compound 1.581 µM) it was 0.135; in test [3] (first compound 5 µM), 0.155; in test [4] (first compound 0.05 µM), 0.21; in test [4] (first compound 0.1581 µM), 0.196; in test [4] (first compound 0.5 µM) it was 0.16. Besides, the relative viability in test [4] (first compound 1.581 µM) turned out to be 0.124; in test [4] (first compound 5 µM), 0.11.

For HOP-62, the relative viability in test [1] (first compound 0.05 µM) was 0.92; in test [1] (first compound 0.1581 µM), 0.984; in test [1] (first compound 0.5 µM) it was 0.843; in test [1] (first compound 1.581 µM) it was 0.232; in test [1] (first compound 5 µM) it was 0.814; in test [2] (first compound 0.05 µM), 0.67. The relative viability amounted to 0.664 in test [2] (first compound 0.1581 µM); 0.53 in test [2] (first compound 0.5 µM); 0.15 in test [2] (first compound 1.581 µM); 0.108 in test [2] (first compound 5 µM); 0.35 in test [3] (first compound 0.05 µM); 0.284 in test [3] (first compound 0.1581 µM). In addition, the relative viability worked out at 0.348 in test [3] (first compound 0.5 µM); 0.163 in test [3] (first compound 1.581 µM); 0.136 in test [3] (first compound 5 µM); 0.261 in test [4] (first compound 0.05 µM); 0.302 in test [4] (first compound 0.1581 µM); 0.265 in test [4] (first compound 0.5 µM). Further, the relative viability in test [4] (first compound 1.581 µM) is 0.123; in test [4] (first compound 5 µM), 0.0991.

As to HCC-44, the relative viability in test [1] (first compound 0.05 µM) came out at 1; in test [1] (first compound 0.1581 µM), 0.913; in test [1] (first compound 0.5 µM), 0.187; in test [1] (first compound 1.581 µM), 0.121; in test [1] (first compound 5 µM), 0.0869; in test [2] (first compound 0.05 µM) it was 0.193. Besides, the relative viability in test [2] (first compound 0.1581 µM) was found to be 0.164; in test [2] (first compound 0.5 µM), 0.106; in test [2] (first compound 1.581 µM), 0.0862; in test [2] (first compound 5 µM) it was 0.118; in test [3] (first compound 0.05 µM), 0.977; in test [3] (first compound 0.1581 µM) it was 0.935. Further, the relative viability worked out at 0.874 in test [3] (first compound 0.5 µM); 0.387 in test [3] (first compound 1.581 µM); 0.225 in test [3] (first compound 5 µM); 0.633 in test [4] (first compound 0.05 µM); 0.625 in test [4] (first compound 0.1581 µM); 0.685 in test [4] (first compound 0.5 µM). Moreover, the relative viability in test [4] (first compound 1.581 µM) amounted to 0.338; in test [4] (first compound 5 µM) it was 0.342.
